Values after ≈ are worked out from the molar mass of the structure shown. A value given as a limit tells only on which side of the number the result lay.

Common to all, as to format: cell-based
Test [1] relates to Bacillus cereus (ATCC 11778). Description: MIC susceptibility test, microdilution with MTT readout. The settings on record: Bacillus cereus, ATCC11778, read-out: MIC BC. The method, boiled down:
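Bacillus cereus ATCC® 11778 susceptibility was measured by broth microdilution in 96-well microplates using Cation Adjusted Mueller-Hinton broth. Samples were diluted two-fold from 5 μg/mL over 12 steps. Each well combined 100 μL of cell suspension (10^6 CFU/mL) with 100 μL of antibiotic solution and was incubated at 37° C. for 24 h. Then 50 μL of MTT (1 mg/mL) was added for 30 min, and MIC (μg/mL) was read as the lowest concentration inhibiting growth.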
Background: Broth dilution looks for growth in wells or tubes with falling amounts of substance.

The subject of test [2] is Enterococcus faecalis (ATCC 29212). Described as above. The settings on record: Enterococcus faecalis ATCC29212; read-out: MIC EF. The method, boiled down: (§1)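 Broth microdilution in cation-adjusted Mueller-Hinton broth, 12-step two-fold series from 5 μg/mL to […], mixed 1:1 with 10^6 CFU/mL cell suspension and incubated 24 h at 37 °C. MTT (1 mg/mL solution) is then added for 30 min (S. aureus, MRSA) or 2 h (E. faecalis strains). MIC = lowest concentration inhibiting growth.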

Test [3] deals with Methicillin resistant Staphylococcus aureus (ATCC 33591). The description is as above. The conditions noted are these: ATCC 3359 / ATCC 33591 / MRSA; Staphylococcus aureus ATCC3359, Methicillin resistance; read-out: MIC MRSA. In short, it runs like this: as §1
The subject of test [4] is Staphylococcus aureus (ATCC 29213). Described as above. The settings on record: Staphylococcus aureus ATCC29213; read-out: MIC SA. In short, it runs like this: as §1
The test system of test [5] is gentamicin, streptmycin, vancomycin resistant Enterococcus faecalis (ATCC 51299). The experiment in a line: microbe, parasite or virus in culture. The conditions noted are these: Enterococcus faecalis, ATCC51299, read-out: MIC VREF. The method, boiled down: as §1
The test system of test [6] is Enterococcus faecium CL5137, VanA. Description: MIC susceptibility test. The settings on record: Enterococcus faecium CL5137, VanA; read-out: MIC CL5137.
For test [7], the system named is Enterococcus faecalis CL5244, VanB. The experiment in a line: MIC susceptibility test. The settings on record: Enterococcus faecalis CL5244, VanB; read-out: MIC CL5244. The method, boiled down: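 MTT-based broth microdilution in cation-adjusted Mueller-Hinton broth; two-fold 12-step dilutions […], inoculum 10^6 CFU/mL, 37° C for 24 h.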

For `CN[C@@H](CC(C)C)C(=O)N[C@H]1C(=O)N[C@@H](CC(N)=O)C(=O)N[C@H]2C(=O)NC3C(=O)N[C@H](C(=O)N[C@@H](C(=O)O)c4cc(O)cc(O)c4-c4cc3ccc4O)[C@H](O)c3ccc(c(Cl)c3)Oc3cc2cc(c3OC2OC(CSc3nc(C)cc(O)n3)C(O)C(O)C2OC2CC(C)(N)C(O)C(C)O2)Oc2ccc(cc2Cl)[C@H]1O` (some centres unmarked) [LXXVIII, Glucose-C6-2-thio-4-hydroxy-6-methylpyrimidine Vancomycin], the MIC is 0.63 µg/mL (≈ 0.4 µM) in test [1]; 0.63 µg/mL (≈ 0.4 µM) in test [2]; 1.3 µg/mL (≈ 0.826 µM) in test [3]; 1 µg/mL (≈ 0.636 µM) in test [4]; 2.5 µg/mL (≈ 1.59 µM) in test [5]; over 50 µg/mL in test [6]. For the same molecule, the MIC in test [7] is 6.3 µg/mL (≈ 4 µM).

In the case of `CCCCCCCCCCNC1(C)CC(OC2C(Oc3c4cc5cc3Oc3ccc(cc3Cl)[C@@H](O)[C@@H](NC(=O)[C@H](CC(C)C)NC)C(=O)N[C@@H](CC(N)=O)C(=O)N[C@H]5C(=O)NC3C(=O)N[C@H](C(=O)N[C@@H](C(=O)O)c5cc(O)cc(O)c5-c5cc3ccc5O)[C@H](O)c3ccc(c(Cl)c3)O4)OC(CSc3nc4cc(Cl)ccc4s3)C(O)C2O)OC(C)C1O` (some centres unmarked) [LXXX, N-Decylvancosamine-glucose-C6-2-thio-5-chlorobenzothiazole Vancomycin], the MIC in test [1] is 5 µg/mL (≈ 2.82 µM); in test [2], 1.3 µg/mL (≈ 0.733 µM); in test [3], 5 µg/mL (≈ 2.82 µM); in test [4] it was over 5 µg/mL; in test [5] it was 2.5 µg/mL (≈ 1.41 µM); in test [6] it was 50 µg/mL (≈ 28.2 µM). Further, the MIC in test [7] is 2.4 µg/mL (≈ 1.35 µM).

Turning to `CCCCCCCCCCNC1(C)CC(OC2C(Oc3c4cc5cc3Oc3ccc(cc3Cl)[C@@H](O)[C@@H](NC(=O)[C@H](CC(C)C)NC)C(=O)N[C@@H](CC(N)=O)C(=O)N[C@H]5C(=O)NC3C(=O)N[C@H](C(=O)N[C@@H](C(=O)O)c5cc(O)cc(O)c5-c5cc3ccc5O)[C@H](O)c3ccc(c(Cl)c3)O4)OC(CSc3nc(-c4ccccc4)c(-c4ccccc4)o3)C(O)C2O)OC(C)C1O` (some centres unmarked) [LXXXII, N-Decylvancosamine-glucose-C6-2-thio-4,5-diphenyloxazole Vancomycin], the MIC in test [1] was over 5 µg/mL; in test [2], over 5 µg/mL; in test [3] it was over 5 µg/mL; in test [4], over 5 µg/mL; in test [5], over 5 µg/mL; in test [6] it was over 50 µg/mL. The MIC in test [7] worked out at 13 µg/mL (≈ 7.12 µM).

Consider `CN[C@@H](CC(C)C)C(=O)N[C@H]1C(=O)N[C@@H](CC(N)=O)C(=O)N[C@H]2C(=O)NC3C(=O)N[C@H](C(=O)N[C@@H](C(=O)O)c4cc(O)cc(O)c4-c4cc3ccc4O)[C@H](O)c3ccc(c(Cl)c3)Oc3cc2cc(c3OC2OC(CSc3nnc(N)s3)C(O)C(O)C2OC2CC(C)(NCc3ccc(-c4ccc(Cl)cc4)cc3)C(O)C(C)O2)Oc2ccc(cc2Cl)[C@H]1O` (some centres unmarked) [LXXXIII, N-4-(4-Chlorophenyl)benzylvancosamine-glucose-C6-2-thio-5-amino-1,3,4-thiadiazole Vancomycin], for which the MIC in test [1] came out at 0.32 µg/mL (≈ 0.181 µM); in test [2], 0.16 µg/mL (≈ 0.0906 µM); in test [3] it was 0.48 µg/mL (≈ 0.272 µM); in test [4] it was 0.48 µg/mL (≈ 0.272 µM); in test [5], 0.32 µg/mL (≈ 0.181 µM); in test [6] it was 3.2 µg/mL (≈ 1.81 µM). Besides, the MIC in test [7] was determined as 0.2 µg/mL (≈ 0.113 µM).

As to `CN[C@@H](CC(C)C)C(=O)N[C@H]1C(=O)N[C@@H](CC(N)=O)C(=O)N[C@H]2C(=O)NC3C(=O)N[C@H](C(=O)N[C@@H](C(=O)O)c4cc(O)cc(O)c4-c4cc3ccc4O)[C@H](O)c3ccc(c(Cl)c3)Oc3cc2cc(c3OC2OC(CSc3nnc(NN)n3N)C(O)C(O)C2OC2CC(C)(NCc3ccc(-c4ccc(Cl)cc4)cc3)C(O)C(C)O2)Oc2ccc(cc2Cl)[C@H]1O` (some centres unmarked) [LXXXIV, N-4-(4-Chlorophenyl)benzylvancosamine-glucose-C6-5-thio-4-amino-3-hydrazino-1,2,4-triazole Vancomycin], the MIC in test [1] is 0.08 µg/mL (≈ 0.045 µM); in test [2], 0.12 µg/mL (≈ 0.0675 µM); in test [3] it was 0.48 µg/mL (≈ 0.27 µM); in test [4] it was 0.63 µg/mL (≈ 0.354 µM); in test [5], 0.16 µg/mL (≈ 0.09 µM); in test [6] it was 6.3 µg/mL (≈ 3.54 µM). In addition, the MIC in test [7] is 0.2 µg/mL (≈ 0.112 µM).

The record behind these values is patent US6710168B1, “Glycopeptide antibiotics, combinatorial libraries of glycopeptide antibiotics and methods of producing same” (The Trustees of the University of Princeton, priority 1999, dated 2004).
